Test results published in paper PMC8161026, “Synthesis and Anticancer Activity Evaluation of 5-[2-Chloro-3-(4-nitrophenyl)-2-propenylidene]-4-thiazolidinones” (Molecules, 2021).

Experiments:
SF-268 = experiment: NCI DTP 60 cell line screen, SRB
HOP-62 [1] = conditions: HOP-62 (Non-Small Cell Lung Cancer), 48 h, SRB
U251 = experiment: cells; conditions: Homo sapiens, U-251, 48 h
SK-MEL-2 [2] = experiment: cells; conditions: Homo sapiens, SK-MEL-2, 48 h
HCT-116 = experiment: cells; conditions: Homo sapiens, HCT-116, 48 h
SF-295 = experiment: NCI DTP 60 cell line screen, SRB
MALME-3M = experiment: NCI DTP 60 cell line screen, SRB; conditions: 48 h
MOLT-4 [3] = conditions: MOLT-4 (Leukemia), 48 h, SRB
DU-145 = DU-145 (Prostate Cancer), 48 h, SRB
HOP-62 [4] = experiment: cells; conditions: Homo sapiens, HOP-62, 48 h
A549/ATCC = experiment: cells; conditions: Homo sapiens, A549, 48 h
SNB-19 = experiment: NCI DTP 60 cell line screen, SRB
IGROV1 = experiment: NCI DTP 60 cell line screen, SRB
MDA-MB-435 = experiment: NCI DTP 60 cell line screen, SRB
T-47D = T-47D (Breast Cancer), 48 h, SRB
HL-60(TB) = HL-60(TB) (Leukemia), 48 h, SRB
OVCAR-4 = experiment: NCI DTP 60 cell line screen, SRB
CCRF-CEM = experiment: NCI DTP 60 cell line screen, SRB; conditions: 48 h
SR = experiment: cells; conditions: Homo sapiens, 48 h
60 tumor cell lines = experiment: NCI60 full panel MG_MID
Method: At the first stage of biological activity study, the antitumor activity screening of the selected compounds 2b, 2c, 2f, 2h, and 2j was performed according to the NCI DTP (USA) standard protocol at the concentrations ranging from 10^−4 to 10^−8 M toward 60 tumor cell lines. The percentage of growth was evaluated spectrophotometrically versus controls not treated with test agents after 48 h exposure and using SRB protein assay to estimate cell viability or growth. Dose–response parameters were calculated for each cell line: GI50—molar concentration of the compound that inhibits 50% net cell growth; TGI—molar concentration of the compound leading to the total inhibition; and LC50—molar concentration of the compound leading to 50% net cell death. Furthermore, mean graph midpoints (MG_MID) were calculated for each of the parameters, giving an average activity parameter over all cell lines for the tested compound. For the MG_MID calculation, insensitive cell lines were included with the highest concentration tested.
Primary anticancer assay was performed on a panel of approximately sixty human tumor cell lines derived from nine neoplastic diseases, in accordance with the protocol of the Drug Evaluation Branch, National Cancer Institute, Bethesda. Tested compounds were added to the culture at a single concentration (10^−5 M) and the cultures were incubated for 48 h. End point determinations were made with a protein binding dye, sulforhodamine B (SRB). […] The percentage growth was evaluated spectrophotometrically versus controls not treated with test agents.
Dose–response parameters (GI50, TGI, LC50) were calculated for each compound. […] The drug concentration resulting in total growth inhibition (TGI) was calculated from Ti = Tz. The LC50 (concentration of drug resulting in a 50% reduction in the measured protein at the end of the drug treatment as compared to that at the beginning) indicating a net loss of cells following treatment was calculated from [(Ti − Tz)/Tz] × 100 = −50 (2). Values were calculated for each of these parameters if the level of activity was reached; however, if the effect was not reached or was excessive, the value for that parameter was expressed as more or less than the maximum or minimum concentration tested.

RPMI-8226 = experiment: cells; conditions: Homo sapiens, RPMI-8226, 48 h
MOLT-4 [5] = experiment: cells; conditions: Homo sapiens, MOLT-4, 48 h
HCT-15 = experiment: NCI DTP 60 cell line screen, SRB
SK-MEL-2 [6] = conditions: SK-MEL-2 (Melanoma), 48 h, SRB

O=C1NC(=S)S/C1=C\C(Cl)=C\c1ccc([N+](=O)[O-])cc1 [Compound 2b, 5-[(Z,2Z)-2-Chloro-3-(4-nitrophenyl)-2-propenylidene]-2-thioxo-4-thiazolidinone]
GI50 (SF-268; Homo sapiens, SF-268, 48 h): 5.24 µM
CC50 (SF-268; Homo sapiens, SF-268, 48 h, read-out: LC50): > 50 µM
TGI (SF-268; SF-268 (CNS Cancer), 48 h, SRB): 18.9 µM
TGI (HOP-62 [1]): 33.1 µM
GI50 (U251): 3.09 µM
CC50 (U251; read-out: LC50): 22.1 µM
GI50 (SK-MEL-2 [2]): 8.07 µM
CC50 (SK-MEL-2 [2]; read-out: LC50): > 50 µM
GI50 (HCT-116): 2.93 µM
CC50 (HCT-116; read-out: LC50): 33.7 µM
GI50 (SF-295; Homo sapiens, SF-295, 48 h): 8.46 µM
CC50 (SF-295; Homo sapiens, SF-295, 48 h, read-out: LC50): > 50 µM
TGI (SF-295; SF-295 (CNS Cancer), 48 h, SRB): 37.9 µM
GI50 (MALME-3M; Homo sapiens, Malme-3M): 4.93 µM
CC50 (MALME-3M; Homo sapiens, Malme-3M, read-out: LC50): 44.6 µM
TGI (MALME-3M; MALME-3M (Melanoma), SRB): 14.9 µM
TGI (MOLT-4 [3]): 14.2 µM
TGI (DU-145): 14.2 µM
GI50 (HOP-62 [4]): 15.4 µM
CC50 (HOP-62 [4]; read-out: LC50): > 50 µM
GI50 (A549/ATCC): 8.18 µM
CC50 (A549/ATCC; read-out: LC50): > 50 µM
GI50 (SNB-19; Homo sapiens, SNB-19, 48 h): 8.1 µM
CC50 (SNB-19; Homo sapiens, SNB-19, 48 h, read-out: LC50): > 50 µM
TGI (SNB-19; SNB-19 (CNS Cancer), 48 h, SRB): 21.4 µM
GI50 (IGROV1; Homo sapiens, IGROV-1, 48 h): 7.28 µM
CC50 (IGROV1; Homo sapiens, IGROV-1, 48 h, read-out: LC50): > 50 µM
TGI (IGROV1; IGROV1 (Ovarian Cancer), 48 h, SRB): 21.1 µM
GI50 (MDA-MB-435; Homo sapiens, MDA-MB-435, 48 h): 8.57 µM
CC50 (MDA-MB-435; Homo sapiens, MDA-MB-435, 48 h, read-out: LC50): > 50 µM
TGI (MDA-MB-435; MDA-MB-435 (Breast Cancer), 48 h, SRB): 47.9 µM
TGI (T-47D): > 50 µM
TGI (HL-60(TB)): 14.4 µM
GI50 (OVCAR-4; Homo sapiens, OVCAR-4, 48 h): 1.95 µM
CC50 (OVCAR-4; Homo sapiens, OVCAR-4, 48 h, read-out: LC50): > 50 µM
TGI (OVCAR-4; OVCAR-4 (Ovarian Cancer), 48 h, SRB): 11.7 µM
TGI (CCRF-CEM; CCRF-CEM (Leukemia), SRB): 21.5 µM
GI50 (CCRF-CEM; Homo sapiens, CCRF-CEM): 1.97 µM
CC50 (CCRF-CEM; Homo sapiens, CCRF-CEM, read-out: LC50): > 50 µM
GI50 (SR): 1.18 µM
CC50 (SR; read-out: LC50): > 50 µM
GI50 (60 tumor cell lines; Homo sapiens, read-out: 60 lines MG_MID, GI50): 4.79 µM
CC50 (60 tumor cell lines; Homo sapiens, read-out: 60 lines MG_MID, LC50): 43.5 µM
60 lines MG_MID, TGI (60 tumor cell lines; mean over all cell lines): 20.3 µM
GI50 (RPMI-8226): 1.54 µM
CC50 (RPMI-8226; read-out: LC50): > 50 µM
GI50 (MOLT-4 [5]): 1.74 µM
CC50 (MOLT-4 [5]; read-out: LC50): > 50 µM
TGI (HCT-15; HCT-15 (Colon Cancer), 48 h, SRB): 8.81 µM
GI50 (HCT-15; Homo sapiens, HCT-15, 48 h): 1.79 µM
CC50 (HCT-15; Homo sapiens, HCT-15, 48 h, read-out: LC50): 25.4 µM
TGI (SK-MEL-2 [6]): 26.9 µM
